For one assay, the target named is T1, recombinant human ERβ (Homo sapiens, UniProt Q92731).
T1 construct: purchased PanVera Corporation (Madison, Wis.); host or cells: baculovirus-mediated expression system
In words: ERβ binding assay: competition of [3H]E2 binding by competing estrogens. The conditions noted are these: for RBAβ (%) (relative binding affinity for ERβ, of E2): calculated against E2 = 100; for binding affinity for ERβ (in words): concentrations up to 1000 nM. From the text: (§1) The recombinant human ERα and ERβ proteins and bovine serum albumin (BSA) were obtained from PanVera Corporation (Madison, Wis.). According to the supplier, the recombinant human ERα and ERβ were produced in a baculovirus-mediated expression system, and they were soluble and functionally active, with post-translational modifications similar to those found in mammalian cells. See Reid et al., Human estrogen receptor-α: Regulation by synthesis, modification and degradation, Cell. Mol. Life.
(§2) The following buffer solutions were used in the ER binding assays, and they were prepared beforehand and stored at 4° C. The binding buffer consisted of 10% glycerol, 2 mM dithiothreitol, 1 mg/mL BSA and 10 mM Tris-HCl at pH 7.5. The ERα washing buffer contained 40 mM Tris-HCl and 100 mM KCl (pH 7.4), but the ERG washing buffer contained only 40 mM Tris-HCl (adjusted to pH 7.4). The 50% hydroxylapatite slurry was prepared first by vigorously mixing 10 g hydroxylapatite with 60 mL of the Tris-HCl solution (50 mM, pH 7.4). Hydroxylapatite was then allowed to settle for 20 minutes at room temperature, and the supernatant was decanted. The above procedures were repeated 10 times, and afterwards hydroxylapatite was kept in the 50 mM Tris-HCl solution overnight at 4° C. Hydroxylapatite slurry was then adjusted to an approximate final concentration of 50% (v/v) using the same Tris-HCl solution and stored at 4° C., and the slurry was stable for up to several months.
(§3) Note that all of the estrogens were initially dissolved in pure ethanol to a stock concentration of 1 mM, and then further diluted to 100 μM with 20% aqueous ethanol. […] Immediately before the addition of the ERα or ERβ protein, it was diluted in the binding buffer and mixed gently with repetitive pipettings. […] The incubation mixture was then mixed gently and thoroughly with repetitive pipettings. […] The binding mixture was incubated at room temperature for two hours. At the end of the incubation, 100 μL of the hydroxylapatite slurry was added to each tube and the tubes were incubated on ice for 15 minutes with 3 times of brief vortexing. An aliquot (1 mL) of the appropriate washing buffer was added, mixed, and centrifuged at 10,000 g for five minutes, and the supernatants were discarded. This wash step was repeated twice. Hydroxylapatite pellets were then resuspended in 200 μL ethanol (followed by another rinse with 200 μL ethanol), and then the content was transferred to scintillation vials (containing 4 mL of the scintillation fluid) for measurement of ^3H-radioactivity with a liquid scintillation counter (Packard Tri-CARB 2900 TR; Downers Grove, Ill.).
(§4) To calculate the specific binding (pmol/mL) of the human ERα or ERβ protein at each concentration point, the following equation was used: […]
(§5) When a lower radioligand concentration is used, the corresponding IC50 value will also be relatively lower, but when the radioligand concentration increases, the corresponding IC50 value will also increase. […] Since the RBA value is a parameter that is independent of the radioligand concentration used, we thus have placed more emphasis on the RBA values instead of the absolute IC50 values in interpreting the physiological meanings of the data from in vitro receptor competition assays.

In the next assay the target is T2, recombinant human ERα (Homo sapiens, UniProt P03372).
T2 construct: purchased PanVera Corporation (Madison, Wis.); host or cells: baculovirus-mediated expression system
T2 sequence (P03372 1-595): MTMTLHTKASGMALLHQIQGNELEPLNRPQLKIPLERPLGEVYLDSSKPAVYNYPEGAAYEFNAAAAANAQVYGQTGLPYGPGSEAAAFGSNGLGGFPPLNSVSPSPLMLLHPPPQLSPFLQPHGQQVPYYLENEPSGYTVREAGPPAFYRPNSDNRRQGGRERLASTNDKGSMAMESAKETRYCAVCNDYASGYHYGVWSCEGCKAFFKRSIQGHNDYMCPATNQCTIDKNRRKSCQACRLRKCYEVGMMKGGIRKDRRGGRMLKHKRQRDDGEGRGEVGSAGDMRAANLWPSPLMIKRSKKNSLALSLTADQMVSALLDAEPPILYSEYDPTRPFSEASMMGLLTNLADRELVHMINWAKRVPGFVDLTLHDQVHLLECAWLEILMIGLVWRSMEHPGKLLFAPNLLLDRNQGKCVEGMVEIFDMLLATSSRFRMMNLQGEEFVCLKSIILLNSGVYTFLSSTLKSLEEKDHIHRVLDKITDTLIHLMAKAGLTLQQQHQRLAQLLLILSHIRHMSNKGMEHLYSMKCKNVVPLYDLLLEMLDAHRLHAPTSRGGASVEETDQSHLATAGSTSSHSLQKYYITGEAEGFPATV
In words: ERα binding assay: competition of [3H]E2 binding by competing estrogens. As to conditions: for RBAα % (relative binding affinity for ERα, of E2): calculated against E2 = 100; for RBAα/RBAβ: ratio of relative binding affinities ERα over ERβ; for RBA for ERα, % of E1: relative to E1.
Excerpt: as §1, §2, §3, §4, §5

[1] abbreviates: [3H]E2 10 nM, competitor up to 1000 nM, read-out: ERβ IC50.

Structures are written as SMILES. Where two headings read alike, the source gives them in different places.

T1 sequence (Q92731 whole entry): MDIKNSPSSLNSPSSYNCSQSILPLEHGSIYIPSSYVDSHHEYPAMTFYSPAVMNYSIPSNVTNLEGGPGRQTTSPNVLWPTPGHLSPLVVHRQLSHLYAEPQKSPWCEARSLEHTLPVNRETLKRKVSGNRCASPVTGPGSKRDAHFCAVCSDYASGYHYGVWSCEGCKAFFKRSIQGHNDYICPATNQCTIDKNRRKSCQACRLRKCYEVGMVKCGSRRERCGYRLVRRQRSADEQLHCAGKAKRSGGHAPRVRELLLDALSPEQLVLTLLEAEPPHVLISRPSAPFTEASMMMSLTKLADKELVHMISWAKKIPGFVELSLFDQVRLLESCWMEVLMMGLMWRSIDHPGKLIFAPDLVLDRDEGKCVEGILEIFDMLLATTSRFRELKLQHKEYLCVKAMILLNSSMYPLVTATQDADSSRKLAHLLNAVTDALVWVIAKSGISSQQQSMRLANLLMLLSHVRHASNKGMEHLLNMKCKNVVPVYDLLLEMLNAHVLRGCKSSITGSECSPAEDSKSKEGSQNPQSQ

Consider `C[C@]12CC[C@@H]3c4ccc(O)cc4CC[C@H]3[C@@H]1C[C@H](O)[C@H]2O` [16β-OH-E2-17α, 16β-Hydroxyestradiol-17α (16,17-Epiestriol)], for which, on recombinant human ERβ, the “preference of binding affinity for ERβ over ERα” value was 18 fold. Besides, on recombinant human ERβ (read-out: ERβ IC50), the IC50 (in general, the concentration that gives 50% inhibition) stood at 0.0708 µM.
For the compound `CC12CCC3c4ccc(O)cc4C(=O)CC3C1CCC2O` (stereo not drawn) [6-Keto-E2, 6-Ketoestradiol], at recombinant human ERβ, the IC50 was found to be 0.0159 µM and the “RBAβ (%) (relative binding affinity for ERβ, of E2)” value was 56%. Besides, on recombinant human ERα, the IC50 turned out to be 0.0159 µM; the “RBAα % (relative binding affinity for ERα, of E2)” value is 71%; the RBAα/RBAβ stood at 1.3. Moreover, the RBAα/RBAβ entry at recombinant human ERα (listed as 6-ketoestradiol) is listed as “about 1.3”.
`C[C@]12C[C@H](O)[C@@H]3c4ccc(O)cc4CC[C@H]3[C@@H]1CCC2=O` [11β-OH-E1, 11β-Hydroxyestrone]: the IC50 on recombinant human ERβ (read-out: ERβ IC50) and on recombinant human ERα (read-out: ERα IC50) was above 1 µM each time.
In the case of `C[C@]12CC[C@@H]3c4ccc(O)cc4C[C@@H](CCCCCCO)[C@H]3[C@@H]1CC[C@@H]2O` [E2-7α-(CH2)6OH, 7α-(6-Hydroxyhexanyl)-17β-estradiol], the “RBAβ (%) (relative binding affinity for ERβ, of E2)” value on recombinant human ERβ was 40%. At recombinant human ERβ (read-out: ERβ IC50), the IC50 was 0.0223 µM. Further, on recombinant human ERα, the “RBAα % (relative binding affinity for ERα, of E2)” value was 27% and the RBAα/RBAβ is 0.7. In addition, the IC50 on recombinant human ERα (read-out: ERα IC50) is 0.0418 µM.
In the case of `C[C@]12CCc3c(ccc4cc(O)ccc34)[C@@H]1CCC2=O` [D-Equilenin], at recombinant human ERβ, the IC50 was 0.126 µM and the “RBAβ (%) (relative binding affinity for ERβ, of E2)” value was 7%. For the same compound, at recombinant human ERβ (Table 4, Premarin components), the “ERβ RBA” value is 7. At recombinant human ERβ (relative to E1), the “RBA for ERβ, % of E1” value is recorded as 355% and the “binding affinity for ERβ, fold higher than E1” value is “more than 3 fold”. At recombinant human ERα, the IC50 stood at 0.562 µM; the “RBAα % (relative binding affinity for ERα, of E2)” value is reported as 2%; the RBAα/RBAβ is on record as 0.3; the “RBA for ERα, % of E1” value is on record as 20%. In addition, on recombinant human ERα (Table 4, Premarin components), the “ERα RBA” value was found to be 2 and the “Ratio (ERα RBA / ERβ RBA)” value was found to be 0.3.
Consider `CC12CCC3c4ccc(O)cc4C(=O)CC3C1CCC2=O` (stereo not drawn) [6-Keto-E1, 6-Ketoestrone], for which the “RBAβ (%) (relative binding affinity for ERβ, of E2)” value at recombinant human ERβ was 1%. Besides, at recombinant human ERβ (read-out: ERβ IC50), the IC50 came to 0.891 µM. Moreover, at recombinant human ERβ (relative to E1), the “RBA for ERβ, % of E1” value is given as 50%. Moreover, at recombinant human ERα, the “RBAα % (relative binding affinity for ERα, of E2)” value is 2%; the RBAα/RBAβ worked out at 2; the “RBA for ERα, % of E1” value was 23%. Besides, at recombinant human ERα (listed as 6-ketoestrone), the RBAα/RBAβ result is “about 2”. Further, at recombinant human ERα (read-out: ERα IC50), the IC50 came out at 0.49 µM.
For the compound `C[C@]12C[C@@H](O)[C@@H]3c4ccc(O)cc4CC[C@H]3[C@@H]1CC[C@@H]2O` [11α-OH-E2, 11α-Hydroxyestradiol], the IC50 on recombinant human ERβ (read-out: ERβ IC50) and on recombinant human ERα (read-out: ERα IC50) was above 1 µM in each case.
`CC12CCC3c4ccc(O)c(O)c4CCC3C1CCC2=O` (stereo not drawn) [4-OH-E1, 4-Hydroxyestrone]: the “RBAβ (%) (relative binding affinity for ERβ, of E2)” value on recombinant human ERβ is 1%. The half-inhibitory concentration (IC50) at recombinant human ERβ (read-out: ERβ IC50) and at recombinant human ERα (read-out: ERα IC50) was 0.708 µM throughout. Further, the “RBAα % (relative binding affinity for ERα, of E2)” value at recombinant human ERα is recorded as 2%. The RBAα/RBAβ on recombinant human ERα is 2; on recombinant human ERα (listed as 4-hydroxyestrone), “about 2”.
`C[C@]12C[C@@H](O)[C@@H]3c4ccc(O)cc4CC[C@H]3[C@@H]1CCC2=O` [11α-OH-E1, 11α-Hydroxyestrone]: the IC50 on recombinant human ERβ (read-out: ERβ IC50) and on recombinant human ERα (read-out: ERα IC50) was above 1 µM throughout.
Turning to `COc1c(O)ccc2c1CCC1C2CCC2(C)C(=O)CCC12` (stereo not drawn) [4-MeO-E1, 4-Methoxyestrone], on recombinant human ERβ, the IC50 was above 1 µM and the “binding affinity for ERβ (in words)” value is given as “did not have appreciable binding affinity”. In addition, at recombinant human ERα, the IC50 is above 1 µM and the “binding affinity for ERα (in words)” value is “did not have appreciable binding affinity”.
With `COc1cc2c(cc1O)CC[C@@H]1[C@@H]2CC[C@]2(C)C(=O)CC[C@@H]12` [2-MeO-E1, 2-Methoxyestrone], the IC50 on recombinant human ERβ (setting [1]) is above 1 µM; at recombinant human ERα ([3H]E2 10 nM, competitor up to 1000 nM, read-out: ERα IC50), above 1 µM. The “binding affinity for ERβ (in words)” value at recombinant human ERβ is “did not have appreciable binding affinity”. The “binding affinity for ERα (in words)” value on recombinant human ERα (concentrations up to 1000 nM) is listed as “did not have appreciable binding affinity”. At recombinant human ERα (extrapolated from curves of FIGS. 3-7, IC50 not reached), the “RBAα/RBAβ determined by extrapolating the curves” value was “about 1”.
With `C[C@]12CC[C@@H]3c4cc(O)c(O)cc4CC[C@H]3[C@@H]1C[C@@H](O)[C@@H]2O` [2-OH-E3, 2-Hydroxyestriol], at recombinant human ERβ, the “RBAβ (%) (relative binding affinity for ERβ, of E2)” value was 1%. For the same compound, the IC50 at recombinant human ERβ (read-out: ERβ IC50) was 0.794 µM; at recombinant human ERα (read-out: ERα IC50) it was 0.501 µM. Also, the “RBAα % (relative binding affinity for ERα, of E2)” value at recombinant human ERα is 2%. Besides, the figures for the RBAα/RBAβ on recombinant human ERα and at recombinant human ERα (listed as 2-hydroxyestriol) were 2 and “about 2”, respectively.
In the case of `C[C@]12CC[C@@H]3c4ccc(O)cc4CC[C@H]3[C@@H]1C[C@@H](O)[C@@H]2O` [16α-OH-E2 (E3), 16α-Hydroxyestradiol (Estriol), reference compound], on recombinant human ERβ (listed as E3), the “preference of binding affinity for ERβ over ERα” value was “more than five-fold”. Moreover, the IC50 on recombinant human ERβ (read-out: ERβ IC50) is 0.0251 µM.
Regarding `C[C@]12CC[C@@H]3c4ccc(OS(=O)(=O)O)cc4CC[C@H]3[C@@H]1CCC2=O` [E1-3-sulfate, Estrone 3-sulfate], the results for the “binding affinity for ERβ (in words)” value at recombinant human ERβ and on recombinant human ERβ (listed as estrone-3-sulfate) were “basically devoid of appreciable binding affinity” and “virtually no estrogen receptor binding affinity”, respectively. In addition, at recombinant human ERβ (read-out: ERβ IC50), the IC50 is above 1 µM.
With `C#CC1(O)CCC2C3CCc4cc(O)ccc4C3CCC21C` (stereo not drawn) [17α-EE2, 17α-Ethynylestradiol, reference compound], on recombinant human ERβ, the “binding affinity for ERβ (in words)” value is given as “only about half of that of E2”.
For `C[C@]12CC[C@@H]3c4ccc(O)cc4C[C@@H](CCCCCCOCc4ccccc4)[C@H]3[C@@H]1CC[C@@H]2O` [E2-7α-(CH2)6OC6H5, 7α-(6-Benzyloxyhexanyl)-17β-estradiol], the IC50 at recombinant human ERβ (setting [1]) was found to be 0.0631 µM.
Regarding `C[C@]12CCc3c(ccc4cc(O)ccc34)[C@@H]1CC[C@@H]2O` [17β-Dihydroequilenin], the IC50 at recombinant human ERβ (setting [1]) is 0.0089 µM.
The same measure, in the same setting: the value for `CC(=O)OC1C[C@]2(C)[C@@H](O)CC[C@H]2[C@@H]2CCc3cc(O)ccc3[C@@H]12` (stereo partly drawn) [11-Acetate-E2, 17β-Estradiol 11-acetate] was 0.0199 µM.
As for `O=C(CC(=O)c1ccccc1)c1ccccc1` [DBM, Dibenzoylmethane, reference compound], on recombinant human ERβ, the IC50 is above 1 µM and the “binding affinity for ERβ (in words)” value is listed as “weak overall binding affinity”.
As to `C[C@]12CC[C@@H]3c4ccc(O)cc4CC[C@H]3[C@@H]1C[C@@H](O)[C@H]2O` [16α-OH-E2-17α, 16α-Hydroxyestradiol-17α (16,17-Epiestriol)], the IC50 at recombinant human ERβ (read-out: ERβ IC50) was 0.0112 µM. Moreover, the “binding affinity for ERβ, times higher than E2-17α” value on recombinant human ERβ (relative to E2-17α) came out at 16 times.
